Source: ChEMBL document CHEMBL4392829, “Synthesis and biological evaluation of 3-substituted 2-oxindole derivatives as new glycogen synthase kinase 3β inhibitors” (Bioorg Med Chem, 2019)
Calls of active or inactive are those of the source. The calls are words filed in the database; no cut-off is given here.

Key:
[1] = target: Glycogen synthase kinase-3 beta (Homo sapiens, UniProt P49841); test: Inhibition of recombinant human GSK3beta using YRRAAVPPSPSLSRHSSPHQ(pS)EDEEE as substrate measured after 60 mins by ADP-Glo luminescence assay
[2] = tested on: PBMC; test: Cytotoxicity against human PBMC assessed as reduction in cell viability at 0.1 to 10 uM measured after 24 hrs by MTT assay; assay type: cell-based
[3] = tested on: A549; test: Cytotoxicity against human A549 cells assessed as reduction in cell viability measured after 72 hrs by MTT assay; assay type: cell-based
[4] = tested on: Rattus norvegicus; test: Antidiabetic activity in […]/STZ-induced obese type-2 diabetes Wistar rat model assessed as reduction in blood glucose level at 50 mg/kg, ip pretreated for 30 mins followed by glucose challenge and measured up to 120 mins by OGTT; assay type: functional, organism-based
[5] = tested on: PBMC; test: Cytotoxicity against human PBMC assessed as reduction in cell viability at 10 uM measured after 24 hrs by MTT assay; assay type: cell-based
[6] = tested on: Rattus norvegicus; test: Antidiabetic activity in […]/STZ-induced obese type-2 diabetes Wistar rat model assessed as reduction in blood glucose level at 10 mg/kg, ip pretreated for 30 mins followed by glucose challenge and measured up to 120 mins by OGTT; assay type: functional, organism-based
[7] = Homo sapiens, A549, 72 h, read-out: IC50

Sequence of Glycogen synthase kinase-3 beta (P49841 whole entry): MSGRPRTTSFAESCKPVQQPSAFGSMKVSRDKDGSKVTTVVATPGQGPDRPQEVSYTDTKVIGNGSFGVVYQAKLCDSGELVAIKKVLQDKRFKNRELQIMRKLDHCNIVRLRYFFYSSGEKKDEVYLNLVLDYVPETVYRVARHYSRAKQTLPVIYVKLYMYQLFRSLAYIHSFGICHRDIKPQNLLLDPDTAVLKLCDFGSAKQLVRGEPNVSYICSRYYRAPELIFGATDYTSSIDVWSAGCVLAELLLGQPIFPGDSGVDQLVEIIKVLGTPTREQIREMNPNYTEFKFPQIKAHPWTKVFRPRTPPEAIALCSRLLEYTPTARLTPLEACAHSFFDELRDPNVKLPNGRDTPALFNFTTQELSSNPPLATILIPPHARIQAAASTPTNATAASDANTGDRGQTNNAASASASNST

N#CCC1(O)C(=O)Nc2ccc(NC(=O)c3ccccc3)cc21 (stereo not given)
IC50 [1]: > 10 µM

COC(=O)Nc1ccc2c(c1)C(=Cc1ccc([N+](=O)[O-])cc1)C(=O)N2 (mixture of isomers)
Activity [2]: Non-Toxic | IC50 ([3]; a549, read-out: IC50): > 100 µM

Cc1ccc(C(=O)CC2(O)C(=O)Nc3ccccc32)cc1 (stereo not given)
IC50 [1]: > 10 µM | IC50 [3, 7]: 171 µM

COc1ccc2c(c1)/C(=C/C#N)C(=O)N2Cc1ccccc1
IC50 [1]: > 10 µM

O=C1Nc2ccc([N+](=O)[O-])cc2C1=Cc1ccncc1 (mixture of isomers)
IC50 [1]: > 10 µM | IC50 ([3]; a549): Non-Toxic

O=C1Nc2ccc(Br)cc2/C1=C\c1ccccn1
IC50 [1]: > 10 µM | IC50 [3, 7]: 90.6 µM

COc1ccc2c(c1)/C(=C/C(=O)O)C(=O)N2
IC50 [1]: > 10 µM

CC[C@@]1(O)C(=O)OCc2c1cc1n(c2=O)Cc2cc3ccccc3nc2-1 [CAMPTOTHECIN]
IC50 [3, 7]: 3.32 µM

O=C1Nc2ccc(Br)cc2C1=Cc1ccc(Br)cc1 (mixture of isomers)
IC50 [1]: > 10 µM | IC50 [3, 7]: 242 µM

CC(=O)Nc1ccc2c(c1)C(CC(=O)O)(OC(C)=O)C(=O)N2 (stereo not given)
IC50 [1]: > 10 µM

COc1ccc(C(=O)CC2(O)C(=O)Nc3ccccc32)cc1 (stereo not given)
IC50 [1]: > 10 µM | IC50 [3, 7]: > 100 µM

O=C1Nc2ccccc2/C1=C/c1cccs1
IC50 [1]: > 10 µM | IC50 [3, 7]: 491 µM

O=C1Nc2ccc(Br)cc2C1=Cc1cccnc1 (mixture of isomers)
IC50 [1]: > 10 µM | IC50 [3, 7]: 31.4 µM

Cc1ccc(C(=O)/C=C2\C(=O)Nc3ccccc32)cc1
IC50 [1]: > 10 µM | IC50 [3, 7]: 18.7 µM

CCC(=O)Nc1cc(NC(=O)CC)c2c(c1)C(CC#N)(OC(=O)CC)C(=O)N2 (stereo not given)
IC50 [1]: > 10 µM

COc1cc(NC(C)=O)c2c(c1)C(CC#N)(OC(C)=O)C(=O)N2 (stereo not given)
IC50 [1]: > 10 µM

O=C1Nc2ccc([N+](=O)[O-])cc2/C1=C\c1ccccn1
IC50 [1]: 20 µM | IC50 ([3]; a549): Non-Toxic

O=C1Nc2ccccc2C12CC2c1ccccn1 (stereo not given)
IC50 [1]: 1.23 µM | Activity [2]: Non-Toxic | IC50 [3, 7]: > 100 µM

COc1ccc2c(c1)C(O)(CC(=O)c1ccc(C)cc1)C(=O)N2 (stereo not given)
IC50 [1]: > 10 µM | IC50 [3, 7]: > 100 µM

O=C1Nc2ccc(Br)cc2C1=Cc1ccco1 (mixture of isomers)
IC50 [1]: > 10 µM | IC50 [3, 7]: 449 µM

O=C1Nc2ccccc2C1=Cc1ccncc1 (mixture of isomers)
IC50 [1]: > 10 µM | IC50 [3, 7]: 80.3 µM

COc1cccc2c1C(=O)c1c(O)c3c(c(O)c1C2=O)C[C@@](O)(C(=O)CO)C[C@@H]3O[C@H]1C[C@H](N)[C@H](O)[C@H](C)O1 [DOXORUBICIN]
IC50 [3, 7]: 0.17 µM

O=C1Nc2ccccc2/C1=C/c1ccccn1
IC50 [1]: 0.00419 µM | Activity [2]: Non-Toxic | IC50 [3, 7]: 48 µM | Activity [4]: Active

COc1ccc(C(=O)CC2(O)C(=O)Nc3ccc(Br)cc32)cc1 (stereo not given)
IC50 [1]: > 10 µM | IC50 [3, 7]: 474 µM

O=C1Nc2ccc(Br)cc2C1=Cc1ccncc1 (mixture of isomers)
IC50 [1]: > 10 µM | IC50 [3, 7]: 22.3 µM

COc1cc(/C=C2\C(=O)Nc3ccc(NC(C)=O)cc32)cc(OC)c1OC
Activity [2]: Non-Toxic | IC50 ([3]; a549, read-out: IC50): 149 µM

O=C1Nc2ccc([N+](=O)[O-])cc2C1=Cc1cccnc1 (mixture of isomers)
IC50 [1]: > 10 µM | IC50 ([3]; a549, read-out: IC50): 429 µM

O=C1Nc2ccc(NC(=O)c3ccccc3)cc2/C1=C/c1ccc(O)cc1
IC50 [1]: 4.34 µM | Activity [5]: Toxic | IC50 ([3]; a549, read-out: IC50): 412 µM

O=C1Nc2ccc(Br)cc2C1=Cc1cccs1 (mixture of isomers)
IC50 [1]: > 10 µM | IC50 [3, 7]: 427 µM

COC(=O)Nc1ccc2c(c1)/C(=C/c1ccc(Br)cc1)C(=O)N2
IC50 [1]: > 10 µM | IC50 [3, 7]: > 100 µM

Cc1ccc(C(=O)CC2(O)C(=O)Nc3ccc(Br)cc32)cc1 (stereo not given)
IC50 [1]: > 10 µM | IC50 [3, 7]: > 100 µM

O=C1Nc2ccccc2/C1=C/c1ccco1
IC50 [1]: > 10 µM | IC50 [3, 7]: 595 µM

COC(=O)Nc1ccc2c(c1)/C(=C/c1ccc(O)cc1)C(=O)N2
Activity [2]: Non-Toxic | IC50 ([3]; a549, read-out: IC50): 44.4 µM

O=C1Nc2ccccc2C1=Cc1cccnc1 (mixture of isomers)
IC50 [1]: > 10 µM | IC50 ([3]; a549, read-out: IC50): 67.5 µM

COc1cccc2c1C(=O)c1c(O)c3c(c(O)c1C2=O)C[C@@](O)(C(C)=O)C[C@@H]3O[C@H]1C[C@H](N)[C@H](O)[C@H](C)O1 [DAUNORUBICIN]
IC50 [3, 7]: 0.15 µM

O=C1Nc2ccc([N+](=O)[O-])cc2/C1=C/c1ccco1
IC50 [1]: 12.8 µM | IC50 ([3]; a549, read-out: IC50): 329 µM

CC(=O)Nc1ccc2c(c1)/C(=C/c1cccc(O)c1)C(=O)N2
IC50 [1]: > 10 µM | IC50 [3, 7]: 176 µM

N#C[C@@H]1CCCN1C(=O)CNC12CC3CC(CC(O)(C3)C1)C2
Activity [6]: Active
